Test system: plasma enzymes
Details: for P5P formed / relative P5P formed: Sprague Dawley, rat
Throughout, for P5P formed: test concentration or dose not given here.

SMILES | P5P formed | relative P5P formed | stability in DMSO (stock solution)
Cc1ncc(COP(=O)(N[C@@H](C)C(=O)OCC2CCCC2)Oc2ccccc2)c(C=O)c1O (stereo partly drawn) [Compound 16x, (2S)-Cyclopentylmethyl 2-(((4-formyl-5-hydroxy-6-methylpyridin-3-yl)methoxy)(phenoxy)phosphorylamino)propanoate] | 1.95 µM | 121.9% | –
Cc1ncc(COP(=O)(NC(CC(F)(F)F)C(=O)OC(C)C)Oc2ccccc2)c(CO)c1O (stereo not shown) [Compound 15xiv, Isopropyl 4,4,4-trifluoro-2-(((5-hydroxy-4-(hydroxymethyl)-6-methylpyridin-3-yl)methoxy)(phenoxy)phosphorylamino)butanoate] | 0.1 µM | 2.6% | –
Cc1ncc(COP(=O)(N[C@@H](Cc2ccc(OCc3ccccc3)cc2)C(=O)OC(C)C)Oc2ccccc2)c(C=O)c1O (stereo partly drawn) [Compound 16xxix, (2S)-Isopropyl 3-(4-(benzyloxy)phenyl)-2-(((4-formyl-5-hydroxy-6-methylpyridin-3-yl)methoxy)(phenoxy)phosphorylamino)propanoate] | 2.4 µM | 58.5% | –
[2H]C([2H])(NP(=O)(OCc1cnc(C)c(O)c1CN)Oc1ccccc1)C(=O)OC(C([2H])([2H])[2H])C([2H])([2H])[2H] (stereo not shown) [Compound 14xiii] | 0.3 µM | 17.6% | –
Cc1ncc(COP(=O)(N[C@@H](C)C(=O)OCc2ccccc2)Oc2ccccc2)c(CO)c1O (stereo partly drawn) [Compound 15xi, (2S)-Benzyl 2-(((5-hydroxy-4-(hydroxymethyl)-6-methylpyridin-3-yl)methoxy)(phenoxy)phosphorylamino)propanoate] | 1.1 µM | 10.5% | –
Cc1ncc(COP(=O)(N[C@@H](C)C(=O)OC2CCN(C)CC2)Oc2ccccc2)c(CN)c1O (stereo partly drawn) [Compound 14xv, (2S)-1-Methylpiperidin-4-yl 2-(((4-(aminomethyl)-5-hydroxy-6-methylpyridin-3-yl)methoxy)(phenoxy)phosphorylamino)propanoate] | 0.3 µM | 10.3% | –
Cc1ncc(COP(=O)(NCC(=O)OC(C)C)Oc2ccccc2)c(C=O)c1O (stereo not shown) [Compound 16xv, Isopropyl 2-(((4-formyl-5-hydroxy-6-methylpyridin-3-yl)methoxy)(phenoxy)phosphorylamino)acetate] | – | – | unstable in DMSO
[2H]C([2H])([2H])C(OC(=O)[C@H](C)NP(=O)(OCc1cnc(C)c(O)c1C=O)Oc1ccccc1)C([2H])([2H])[2H] (stereo partly shown) [Compound 16xxii] | 6.3 µM | 153.7% | –
Cc1ncc(COP(=O)(N[C@@H](C)C(=O)Oc2ccc3c(c2)CCCC3)Oc2ccccc2)c(C=O)c1O (stereo partly drawn) [Compound 16xxxiv, (2S)-5,6,7,8-Tetrahydronaphthalen-2-yl 2-(((4-formyl-5-hydroxy-6-methylpyridin-3-yl)methoxy)(phenoxy)phosphorylamino)propanoate] | 4.9 µM | 144.1% | –
[2H]C([2H])([2H])C([2H])(OC(=O)[C@H](C)NP(=O)(OCc1cnc(C)c(O)c1C=O)Oc1ccccc1)C([2H])([2H])[2H] (stereo partly shown) [Compound 16xxi] | 0.3 µM | 17.6% | –
[2H]C([2H])(OP(=O)(N[C@@H](C)C(=O)OC(C)C)Oc1ccccc1)c1cnc(C)c(O)c1C=O (stereo partly shown) [Compound 16xxvii] | 2 µM | 69.0% | –
Cc1ncc(COP(=O)(N[C@@H](C)C(=O)OC(C)C)Oc2ccc(Br)cc2F)c(CN)c1O (stereo partly drawn) [Compound 14xviii, (2S)-Isopropyl 2-(((4-(aminomethyl)-5-hydroxy-6-methylpyridin-3-yl)methoxy)(4-bromo-2-fluorophenoxy)phosphorylamino)propanoate] | 2.4 µM | 96.0% | –
Cc1ncc(COP(=O)(N[C@@H](Cc2ccc(O)cc2)C(=O)OC(C)C)Oc2ccccc2)c(C=O)c1O (stereo partly drawn) [Compound 16xxx, (2S)-Isopropyl 2-(((4-formyl-5-hydroxy-6-methylpyridin-3-yl)methoxy)(phenoxy)phosphorylamino)-3-(4-hydroxyphenyl)propanoate] | 2.2 µM | 75.9% | –
[2H]c1c([2H])c([2H])c(OP(=O)(N[C@@H](C)C(=O)OC(C)C)OCc2cnc(C)c(O)c2CO)c([2H])c1[2H] (stereo partly shown) [Compound 15xix] | 0.4 µM | 7.4% | –
Cc1ncc(COP(=O)(N[C@@H](C)C(=O)Oc2ccc(Cl)cc2)Oc2ccccc2)c(CN)c1O (stereo partly drawn) [Compound 14xvii, (2S)-4-Chlorophenyl 2-(((4-(aminomethyl)-5-hydroxy-6-methylpyridin-3-yl)methoxy)(phenoxy)phosphorylamino)propanoate] | 6.6 µM | 194.1% | –
Cc1ncc(COP(=O)(N[C@@H](C)C(=O)OC2CCCC2)Oc2ccccc2)c(C=O)c1O (stereo partly drawn) [Compound 16xxiv, (2S)-Cyclopentyl 2-(((4-formyl-5-hydroxy-6-methylpyridin-3-yl)methoxy)(phenoxy)phosphorylamino)propanoate] | 2.2 µM | 129.4% | –
Cc1ncc(COP(=O)(N[C@@H](Cc2ccc(OCc3ccccc3)cc2)C(=O)OC(C)C)Oc2ccccc2)c(CN)c1O (stereo partly drawn) [Compound 14xiv, (2S)-Isopropyl 2-(((4-(aminomethyl)-5-hydroxy-6-methylpyridin-3-yl)methoxy)(phenoxy)phosphorylamino)-3-(4-(benzyloxy)phenyl)propanoate] | 0.3 µM | 8.3% | –
COC(=O)[C@@H]1CCCN1P(=O)(OCc1cnc(C)c(O)c1C=O)Oc1ccccc1 (stereo partly drawn) [Compound 16xxxiii, (2S)-Methyl 1-(((4-formyl-5-hydroxy-6-methylpyridin-3-yl)methoxy)(phenoxy)phosphoryl)pyrrolidine-2-carboxylate] | 0.4 µM | 11.8% | –
Cc1ccc(OP(=O)(N[C@@H](C)C(=O)OC(C)C)OCc2cnc(C)c(O)c2CN)cc1 (stereo partly drawn) [Compound 14xvi, (2S)-Isopropyl 2-(((4-(aminomethyl)-5-hydroxy-6-methylpyridin-3-yl)methoxy)(p-tolyloxy)phosphorylamino)propanoate] | 0.3 µM | 10.3% | –
Cc1ncc(COP(=O)(N[C@@H](C)C(=O)OC(C)C)Oc2cccc3ccccc23)c(CO)c1O (stereo partly drawn) [Compound 15x, (2S)-Isopropyl 2-(((5-hydroxy-4-(hydroxymethyl)-6-methylpyridin-3-yl)methoxy)(naphthalen-1-yloxy)phosphorylamino)propanoate] | 0 µM | 0.0% | –
Cc1ncc(COP(=O)(N[C@@H](C)C(=O)OC2CCCC2)Oc2ccccc2)c(CN)c1O (stereo partly drawn) [Compound 14x, (2S)-Cyclopentyl 2-(((4-(aminomethyl)-5-hydroxy-6-methylpyridin-3-yl)methoxy)(phenoxy)phosphorylamino)propanoate] | 0.3 µM | 11.1% | –
CCC(CC)COC(=O)[C@H](C)NP(=O)(OCc1cnc(C)c(O)c1CO)Oc1ccccc1 (stereo partly shown) [Compound 15xxxiv] | 0 µM | 0.0% | –
Cc1ncc(COP(=O)(N[C@@H](C)C(=O)OC2CCN(C)CC2)Oc2ccccc2)c(C=O)c1O (stereo partly drawn) [Compound 16xxxi, (2S)-1-Methylpiperidin-4-yl 2-(((4-formyl-5-hydroxy-6-methylpyridin-3-yl)methoxy)(phenoxy)phosphorylamino)propanoate] | 0.4 µM | 13.8% | –
Cc1ncc(COP(=O)(N[C@@H](C)C(=O)Oc2ccc3ccccc3c2)Oc2ccccc2)c(C=O)c1O (stereo partly drawn) [Compound 16xiv, (2S)-Naphthalen-2-yl 2-(((4-formyl-5-hydroxy-6-methylpyridin-3-yl)methoxy)(phenoxy)phosphorylamino)propanoate] | – | – | unstable in DMSO
Cc1ncc(COP(=O)(N[C@@H](C)C(=O)OC(C)C)Oc2ccc(Cl)c(Cl)c2)c(CO)c1O (stereo partly drawn) [Compound 15iii, (2S)-Isopropyl 2-((3,4-dichlorophenoxy)((5-hydroxy-4-(hydroxymethyl)-6-methylpyridin-3-yl)methoxy)phosphorylamino)propanoate] | 0.4 µM | 7.4% | –
Cc1ncc(COP(=O)(N[C@@H](C)C(=O)OC(C)C)Oc2ccc(Cl)cc2)c(CN)c1O (stereo partly drawn) [Compound 14v, (2S)-Isopropyl 2-(((4-(aminomethyl)-5-hydroxy-6-methylpyridin-3-yl)methoxy)(4-chlorophenoxy)phosphorylamino)propanoate] | 0.3 µM | 11.1% | –
Cc1ncc(COP(=O)(N[C@@H](C)C(=O)OC(C)C)Oc2ccc(OC(F)(F)F)cc2)c(CN)c1O (stereo partly drawn) [Compound 14xi, (2S)-Isopropyl 2-(((4-(aminomethyl)-5-hydroxy-6-methylpyridin-3-yl)methoxy)(4-(trifluoromethoxy)phenoxy)phosphorylamino)propanoate] | 0.3 µM | 17.6% | –
Cc1ncc(COP(=O)(NC(CC(F)(F)F)C(=O)OC(C)C)Oc2ccccc2)c(C=O)c1O (stereo not shown) [Compound 16xi, Isopropyl 4,4,4-trifluoro-2-(((4-formyl-5-hydroxy-6-methylpyridin-3-yl)methoxy)(phenoxy)phosphorylamino)butanoate] | 0.6 µM | 15.8% | –
Cc1ncc(COP(=O)(N[C@@H](C)C(=O)OC(C)C)Oc2cccc3ccccc23)c(C=O)c1O (stereo partly drawn) [Compound 16iv, (2S)-Isopropyl 2-(((4-formyl-5-hydroxy-6-methylpyridin-3-yl)methoxy)(naphthalen-1-yloxy)phosphorylamino)propanoate] | 1.8 µM | 47.4% | –
Cc1ncc(COP(=O)(N[C@@H](C)C(=O)OCc2ccccc2)Oc2ccccc2)c(CN)c1O (stereo partly drawn) [Compound 14iii, (2S)-Benzyl 2-(((4-(aminomethyl)-5-hydroxy-6-methylpyridin-3-yl)methoxy)(phenoxy)phosphorylamino)propanoate] | 0.7 µM | 6.7% | –
